Measurements published in PubChem BioAssay (NCI).
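In this assay, cells in 96-well plates receive the compound at five concentrations for 48 hours. Endpoints are linearly interpolated between the surrounding concentrations. GI50 marks 50% less growth. The concentration for full growth arrest is given as TGI.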

Legend:
Test in all cases: NCI-60 cell line screen, 48 h
[1] = system: SF-295 CNS
[2] = system: SK-MEL-2 melanoma
[3] = system: HOP-62 NSCLC
[4] = system: SW-620 colon
[5] = system: EKVX NSCLC
[6] = system: SF-539 CNS
[7] = system: CAKI-1 renal
[8] = system: A498 renal
[9] = system: NCI-H522 lung
[10] = system: KM12 colon
[11] = system: MALME-3M melanoma
[12] = system: SNB-75 CNS
[13] = system: NCI-H23 lung
[14] = system: HCC-2998 colon
[15] = system: CCRF-CEM leukemia
[16] = system: OVCAR-5 ovarian
[17] = system: NCI/ADR-RES ovarian
[18] = system: LOX IMVI melanoma
[19] = system: SK-MEL-5 melanoma
[20] = system: NCI-H460 lung
[21] = system: RXF 393 renal
[22] = system: BT-549 breast
[23] = system: MDA-MB-231 breast
[24] = system: TK-10 renal
[25] = system: HT29 colon
[26] = system: COLO 205 colon
[27] = system: IGROV1 ovarian
[28] = system: ACHN renal
[29] = system: SNB-19 CNS
[30] = system: UO-31 renal
[31] = system: M14 melanoma
[32] = system: HL-60(TB) leukemia
[33] = system: HCT-116 colon
[34] = system: SF-268 CNS
[35] = system: HS 578T breast
[36] = system: NCI-H226 lung
[37] = system: MCF7 breast
[38] = system: RPMI-8226 leukemia
[39] = system: MDA-MB-435
[40] = system: PC-3 prostate
[41] = system: OVCAR-3 ovarian
[42] = system: K-562 leukemia
[43] = system: SR leukemia
[44] = system: HCT-15 colon
[45] = system: 786-0 renal
[46] = system: UACC-257 melanoma
[47] = system: SK-OV-3 ovarian
[48] = system: UACC-62 melanoma
[49] = system: SK-MEL-28 melanoma
[50] = system: U251 CNS
[51] = system: A549 NSCLC
[52] = system: SN12C renal
[53] = system: T-47D breast
[54] = system: HOP-92 NSCLC
[55] = system: DU-145 prostate
[56] = system: MOLT-4 leukemia
[57] = system: OVCAR-8 ovarian
[58] = system: OVCAR-4 ovarian

With `CC(C)(C)c1ccc(CC(=O)Nc2sc3c(c2C(N)=O)CCC(=O)C3)cc1` the GI50 [1] was 1180 nM, the TGI [1] was 3.18 µM and the GI50 [2] was 2290 nM. It also gave a TGI [2] of 6.64 µM, a GI50 [3] of 2690 nM and a TGI [3] of 13.2 µM. It also gave a GI50 [4] of 386 nM, a TGI [4] of 2.16 µM and a GI50 [5] of 549 nM. The TGI [5] was 3.54 µM, the GI50 [6] was 421 nM and the TGI [6] was 1670 nM. It also gave a GI50 [7] of 395 nM, a TGI [7] of 3.01 µM and a GI50 [8] of 2050 nM. For the same molecule, the TGI [8] was 6.97 µM, the GI50 [9] was 283 nM and the TGI [9] was 2590 nM. The GI50 [10] was 880 nM, the TGI [10] was 3.16 µM and the GI50 [11] was 692 nM. The TGI [11] was 2.35 µM, the GI50 [12] was 1300 nM and the TGI [12] was 4.28 µM. For the same molecule, the GI50 [13] was 340 nM, the TGI [13] was 3.59 µM and the GI50 [14] was 1490 nM. The TGI [14] was 3.88 µM, the GI50 [15] was 137 nM and the TGI [15] was 3.62 µM. It also gave a GI50 [16] of 901 nM, a TGI [16] of 2.99 µM and a GI50 [17] of 621 nM. For the same molecule, the TGI [17] was 5.11 µM, the GI50 [18] was 460 nM and the TGI [18] was 3.41 µM. The GI50 [19] was 1230 nM, the TGI [19] was 2.58 µM and the GI50 [20] was 1030 nM. The TGI [20] was 8.06 µM, the GI50 [21] was 594 nM and the TGI [21] was 1980 nM. The GI50 [22] was 480 nM, the TGI [22] was 2.4 µM and the GI50 [23] was 1170 nM. For the same molecule, the TGI [23] was 3.29 µM, the GI50 [24] was 473 nM and the TGI [24] was 8.48 µM. For the same molecule, the GI50 [25] was 871 nM, the TGI [25] was 8.43 µM and the GI50 [26] was 1330 nM. For the same molecule, the TGI [26] was 3020 nM, the GI50 [27] was 532 nM and the TGI [27] was 3.1 µM. It also gave a GI50 [28] of 374 nM, a TGI [28] of 1.31 µM and a GI50 [29] of 1090 nM. It also gave a TGI [29] of 4.69 µM, a GI50 [30] of 430 nM and a TGI [30] of 1.68 µM. The GI50 [31] was 435 nM, the TGI [31] was 2.69 µM and the GI50 [32] was 423 nM. For the same molecule, the TGI [32] was 3.11 µM, the GI50 [33] was 260 nM and the TGI [33] was 1.29 µM. It also gave a GI50 [34] of 2820 nM, a TGI [34] of 12.7 µM and a GI50 [35] of 1980 nM. It also gave a TGI [35] of 10.9 µM, a GI50 [36] of 1700 nM and a TGI [36] of 4.14 µM. For the same molecule, the GI50 [37] was 433 nM, the TGI [37] was 6.66 µM and the GI50 [38] was 221 nM. It also gave a TGI [38] of 0.691 µM, a GI50 [39] of 1300 nM and a TGI [39] of 4.21 µM. It also gave a GI50 [40] of 207 nM, a TGI [40] of 1.9 µM and a GI50 [41] of 541 nM. For the same molecule, the TGI [41] was 2.09 µM, the GI50 [42] was 233 nM and the TGI [42] was 4.94 µM. For the same molecule, the GI50 [43] was 132 nM, the GI50 [44] was 295 nM and the TGI [44] was 2.11 µM. For the same molecule, the GI50 [45] was 1390 nM, the TGI [45] was 11.8 µM and the GI50 [46] was 2040 nM. For the same molecule, the TGI [46] was 5.86 µM, the GI50 [47] was 2770 nM and the TGI [47] was 8.04 µM. The GI50 [48] was 540 nM, the TGI [48] was 2.07 µM and the GI50 [49] was 1380 nM. The TGI [49] was 3.16 µM, the GI50 [50] was 389 nM and the TGI [50] was 2.25 µM. It also gave a GI50 [51] of 1990 nM, a TGI [51] of 6.92 µM and a GI50 [52] of 1040 nM. The TGI [52] was 3.91 µM, the GI50 [53] was 368 nM and the TGI [53] was 2.67 µM. The GI50 [54] was 464 nM, the TGI [54] was 1.85 µM and the GI50 [55] was 3170 nM. The TGI [55] was 14 µM, the GI50 [56] was 569 nM and the TGI [56] was 8.21 µM. It also gave a GI50 [57] of 458 nM and a TGI [57] of 24.7 µM.

`c1ccc2c(NCCCN3CCOCC3)c3oc4ccccc4c3nc2c1` gave a GI50 [1] of 1590 nM, a TGI [1] of 10.7 µM and a GI50 [2] of 1730 nM. For the same molecule, the TGI [2] was 3.29 µM, the GI50 [3] was 1670 nM and the TGI [3] was 8.18 µM. It also gave a GI50 [4] of 509 nM, a TGI [4] of 10.5 µM and a GI50 [5] of 2540 nM. The TGI [5] was 13.2 µM, the GI50 [6] was 1500 nM and the TGI [6] was 3460 nM. The GI50 [7] was 1100 nM, the TGI [7] was 11.1 µM and the GI50 [8] was 2010 nM. The TGI [8] was 4.41 µM, the GI50 [9] was 1280 nM and the TGI [9] was 3150 nM. It also gave a GI50 [10] of 1460 nM, a TGI [10] of 15.3 µM and a GI50 [11] of 1820 nM. It also gave a TGI [11] of 3.85 µM, a GI50 [12] of 1310 nM and a TGI [12] of 2.6 µM. It also gave a GI50 [14] of 1100 nM, a TGI [14] of 3.72 µM and a GI50 [15] of 1640 nM. The TGI [15] was 15 µM, the GI50 [16] was 1570 nM and the TGI [16] was 7.28 µM. The GI50 [17] was 692 nM, the TGI [17] was 10.9 µM and the GI50 [18] was 568 nM. It also gave a TGI [18] of 3.23 µM, a GI50 [19] of 1980 nM and a TGI [19] of 3.99 µM. It also gave a GI50 [20] of 459 nM, a TGI [20] of 5.96 µM and a GI50 [21] of 1290 nM. For the same molecule, the TGI [21] was 3220 nM, the GI50 [22] was 2030 nM and the TGI [22] was 4.75 µM. It also gave a GI50 [23] of 1540 nM, a TGI [23] of 7.14 µM and a GI50 [24] of 2550 nM. The TGI [24] was 9.75 µM, the GI50 [25] was 566 nM and the TGI [25] was 2.33 µM. The GI50 [26] was 949 nM, the TGI [26] was 2770 nM and the GI50 [27] was 2260 nM. The TGI [27] was 12 µM, the GI50 [28] was 577 nM and the TGI [28] was 20.1 µM. It also gave a GI50 [29] of 1870 nM, a TGI [29] of 13.1 µM and a GI50 [30] of 1730 nM. The TGI [30] was 11.7 µM, the GI50 [31] was 1660 nM and the TGI [31] was 4.11 µM. For the same molecule, the GI50 [32] was 2340 nM, the TGI [32] was 8.59 µM and the GI50 [33] was 437 nM. The TGI [33] was 11.1 µM, the GI50 [34] was 1250 nM and the TGI [34] was 15.5 µM. The GI50 [35] was 2080 nM, the TGI [35] was 6.99 µM and the GI50 [36] was 1930 nM. It also gave a TGI [36] of 5.3 µM, a GI50 [37] of 1020 nM and a TGI [37] of 5.83 µM. For the same molecule, the GI50 [38] was 1720 nM, the TGI [38] was 6.28 µM and the GI50 [39] was 1260 nM. The TGI [39] was 2.61 µM, the GI50 [40] was 1890 nM and the TGI [40] was 7.59 µM. It also gave a GI50 [41] of 2410 nM, a TGI [41] of 45.4 µM and a GI50 [42] of 649 nM. For the same molecule, the TGI [42] was > 100 µM, the GI50 [43] was 599 nM and the TGI [43] was 10.1 µM. The GI50 [44] was 719 nM, the TGI [44] was 12.2 µM and the GI50 [45] was 1950 nM. It also gave a TGI [45] of 14 µM, a GI50 [46] of 1940 nM and a TGI [46] of 4.08 µM. It also gave a GI50 [47] of 3140 nM, a TGI [47] of 18.6 µM and a GI50 [48] of 2160 nM. For the same molecule, the TGI [48] was 5.49 µM, the GI50 [49] was 1880 nM and the TGI [49] was 3.79 µM. It also gave a GI50 [50] of 1490 nM, a TGI [50] of 11 µM and a GI50 [51] of 1580 nM. For the same molecule, the TGI [51] was 12.6 µM, the GI50 [52] was 1020 nM and the TGI [52] was 11.5 µM. The GI50 [58] was 1240 nM, the TGI [58] was 5.14 µM and the GI50 [53] was 2610 nM. The TGI [53] was 9.77 µM, the GI50 [54] was 2100 nM and the TGI [54] was 5.82 µM. It also gave a GI50 [55] of 1550 nM, a TGI [55] of 16.2 µM and a GI50 [56] of 476 nM. The TGI [56] was 38.1 µM, the GI50 [57] was 1170 nM and the TGI [57] was 11.2 µM.
